According to patent US9845487B2, “Selective chromogenic medium” (SZEGEDI TUDOMÁNYEGYETEM, priority 2013, dated 2017):

Legend:
[1] = test system: Saccharomyces; assay: growth of winemaking yeasts on selective medium with cycloheximide; assay type: cell-based; settings: in the concentration used by the inventors
Description: (§1) The procedure requires no sterile laboratory conditions and only little attention is to be paid to ensure that the right sample is placed on the surface of the culture medium. The culture medium contains components easily available. In addition to components used for growth, the medium contains antibiotics inhibiting the growth of yeasts, e.g.—other culture media similar to selective Brettanomyces—cycloheximide as well. This antibiotic is used for the identification of different species in yeast diagnostics.
(§2) In the following examples, unless indicated otherwise, the following concentrations and compositions were applied. Composition of medium that was suitable for growing yeast cells was the following: 1% glucose, 0.67% “yeast nitrogen base”, 2% agar, which was made selectively by using 5 μg/ml cycloheximide as an antibiotics for blocking the growth of Saccharomyces strains. Azure-II-eosinate was used in a 30 μg/ml concentration.

[2] = test system: species causing the degradation of wine; assay: growth of wine-degrading yeasts on selective medium with cycloheximide; assay type: cell-based; settings: in the concentration used by the inventors
Description: as §1, §2

For `C[C@@H]1C[C@@H]([C@H](O)CC2CC(=O)NC(=O)C2)C(=O)[C@@H](C)C1` [cycloheximide], the “growth inhibition of winemaking yeasts” value [1] was “prevents the growth of most yeasts playing a role in wine-making” and the “tolerance by wine-degrading yeast species” value [2] was “still tolerated”.
